Source: patent US20230051263A1, “DEVICE FOR RAPID AND QU[…] OF DRUGS OF ABUSE IN SWEAT” (THE REGENTS OF THE UNIVERSITY OF MICHIGAN, priority 2020, published 2023)

Experiments:
Format in all cases: binding
[1] = system: methadone antibody; test: Cross-reactivity of methadone sensor (capillary competitive chemiluminescent ELISA); conditions: target analyte methadone; challenging analyte in sweat 1.6-10,000 ng/mL vs methadone-HRP 2000x; IC50 ratio Eq. (1)
Description: (§1) In order to develop a sensor array that can quantify the presence of multiple analytes simultaneously, it is important to examine their cross-reactivity. Using the methadone as an example, methadone was the target analyte and channels of the capillary sensor were first coated with methadone antibody. After blocking, serial concentrations of the challenging analytes, METH, amphetamine, or THC, were individually mixed with methadone-HRP and withdrawn into the capillaries. The challenging analyte molecules (e.g., METH) competed with methadone-HRP for the methadone antibody coated on the capillary surface. Cross-reactivity is calculated as follows: […]
(§2) In order to perform multiplexed detection of drugs in sweat, first the cross-reactivity of the capillary-based sensors is examined. The capillary coated with the antibody intended for detecting one particular drug (i.e., target analyte) is challenged with various concentrations of the other three drugs (i.e., challenging analytes). Here, the concentrations of 10,000 ng/mL, 5,000 ng/mL, 400 ng/mL, 80 ng/mL, and 1.6 ng/mL for the challenging analytes in sweat are used. […] One exception is the 3.1% cross-reactivity of METH sensor to amphetamine, which is due to the structural similarities between METH and amphetamine.
(§3) The final concentration of competing drug conjugates was 2000×, 4000×, 15000×, and 4000× for methadone-HRP, METH-HRP, amphetamine-HRP, and THC-HRP, respectively, in corresponding sensors.

[2] = system: amphetamine antibody; test: Cross-reactivity of amphetamine sensor (capillary competitive chemiluminescent ELISA); conditions: target analyte amphetamine; challenging analyte in sweat 1.6-10,000 ng/mL vs amphetamine-HRP 15000x; IC50 ratio Eq. (1)
Description: as §1, §2, §3

[3] = system: tetrahydrocannabinol antibody; test: Cross-reactivity of THC sensor (capillary competitive chemiluminescent ELISA); conditions: target analyte THC; challenging analyte in sweat 1.6-10,000 ng/mL vs THC-HRP 4000x; IC50 ratio Eq. (1)
Description: as §1, §2, §3

[4] = system: corresponding antibody coated on capillary inner surface; test: Detection of individual drugs in artificial sweat, inhibition curves (capillary competitive chemiluminescent ELISA); conditions: y = a + b/(1+(x/x0)^p), x in ng/mL; used as calibration curve
[5] = system: methamphetamine antibody; test: Cross-reactivity of METH sensor (capillary competitive chemiluminescent ELISA); conditions: target analyte METH, challenging analyte in sweat 1.6-10,000 ng/mL vs METH-HRP 4000x, IC50 ratio Eq. (1)
Description: as §1, §2, §3

SMILES | Cross-reactivity (100%) [1] | Cross-reactivity (100%) [2] | Cross-reactivity (100%) [3] | midpoint parameter of logistic fit of inhibition curve B/B0 (%) [4] | Cross-reactivity (100%) [5] | Cross-reactivity (100%) ([5]; listed as amphetamine)
CN[C@@H](C)Cc1ccccc1 [METH, methamphetamine] | <0.001% | 0.07% | <0.4% | 7.63 ng/mL |  | 
CCCCCc1cc(O)c2c(c1)OC(C)(C)[C@@H]1CCC(C)=C[C@@H]21 [THC, tetrahydrocannabinol] | <0.001% | <0.02% |  | 5.95 ng/mL | <0.04% | 
CC(N)Cc1ccccc1 (stereo not shown) [Amphetamine, amphetamine] | <0.001% |  | <0.4% | 1473.04 ng/mL | 3.1% | 3.1%
CCC(=O)C(CC(C)N(C)C)(c1ccccc1)c1ccccc1 (stereo not shown) [Methadone, methadone] |  | <0.02% | <0.4% |  | <0.04% | 
